Data reported in article PMC8401933 (Molecules, 2021).

Tests used:
[1] = target: T1, TTK (Homo sapiens, UniProt P33981); assay: KINOMEscan binding; conditions: read-out: Percent Control
T1 construct: purchased Eurofins DiscoverX KINOMEscan

[2] = target: T2, TAK1 (Homo sapiens, UniProt O43318); assay: KINOMEscan binding; conditions: read-out: Percent Control
T2 construct: purchased Eurofins DiscoverX KINOMEscan

[3] = target: T3, CDKL1 (Homo sapiens, UniProt Q00532); assay: KINOMEscan binding; conditions: read-out: Percent Control
T3 construct: purchased Eurofins DiscoverX KINOMEscan
T3 sequence (Q00532 whole entry): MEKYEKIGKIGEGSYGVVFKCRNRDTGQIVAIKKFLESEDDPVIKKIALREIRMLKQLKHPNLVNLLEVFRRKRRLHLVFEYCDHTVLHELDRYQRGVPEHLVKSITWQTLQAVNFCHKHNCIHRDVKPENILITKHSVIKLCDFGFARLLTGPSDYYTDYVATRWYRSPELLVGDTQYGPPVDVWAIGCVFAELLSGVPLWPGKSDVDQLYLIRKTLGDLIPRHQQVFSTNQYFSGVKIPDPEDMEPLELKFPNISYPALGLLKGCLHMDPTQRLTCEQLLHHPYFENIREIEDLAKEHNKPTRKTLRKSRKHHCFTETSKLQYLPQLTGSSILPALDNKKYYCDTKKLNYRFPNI

[4] = target: T4, SGK (Homo sapiens, UniProt O00141); assay: KINOMEscan binding; conditions: read-out: Percent Control
T4 construct: purchased Eurofins DiscoverX KINOMEscan
T4 sequence (O00141 whole entry): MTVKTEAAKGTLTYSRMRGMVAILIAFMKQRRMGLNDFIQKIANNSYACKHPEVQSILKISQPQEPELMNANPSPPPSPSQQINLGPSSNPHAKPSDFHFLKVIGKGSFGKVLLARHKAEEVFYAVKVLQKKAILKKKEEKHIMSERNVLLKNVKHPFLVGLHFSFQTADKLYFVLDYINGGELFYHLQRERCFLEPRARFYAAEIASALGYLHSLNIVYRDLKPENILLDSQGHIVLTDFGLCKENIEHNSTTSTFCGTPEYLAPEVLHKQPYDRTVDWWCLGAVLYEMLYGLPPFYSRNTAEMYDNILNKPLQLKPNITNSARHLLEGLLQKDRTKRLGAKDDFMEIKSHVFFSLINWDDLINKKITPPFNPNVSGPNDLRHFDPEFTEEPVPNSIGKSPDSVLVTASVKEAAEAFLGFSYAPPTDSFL

[5] = target: T5, MRCKA (Homo sapiens, UniProt Q5VT25); assay: KINOMEscan binding; conditions: read-out: Percent Control
T5 construct: purchased Eurofins DiscoverX KINOMEscan

[6] = target: T6, CDKL2 (Homo sapiens, UniProt Q92772); assay: KINOMEscan binding; conditions: read-out: Percent Control
T6 construct: purchased Eurofins DiscoverX KINOMEscan

[7] = target: T7, RSK3(Kin.Dom.1-N-terminal) (Homo sapiens, UniProt Q15349); assay: KINOMEscan binding; conditions: read-out: Percent Control
T7 construct: RSK3(Kin.Dom.1-N-terminal); purchased Eurofins DiscoverX KINOMEscan

[8] = target: T8, EPHA5 (Homo sapiens, UniProt P54756); assay: KINOMEscan binding; conditions: read-out: Percent Control
T8 construct: purchased Eurofins DiscoverX KINOMEscan

[9] = target: T9, NIK (Homo sapiens, UniProt Q99558); assay: KINOMEscan binding; conditions: read-out: Percent Control
T9 construct: purchased Eurofins DiscoverX KINOMEscan

[10] = target: T10, CAMK1D (Homo sapiens, UniProt Q8IU85); assay: KINOMEscan binding; conditions: read-out: Percent Control
T10 construct: purchased Eurofins DiscoverX KINOMEscan

[11] = target: T11, TYRO3 (Homo sapiens, UniProt Q06418); assay: KINOMEscan binding; conditions: read-out: Percent Control
T11 construct: purchased Eurofins DiscoverX KINOMEscan

[12] = target: T12, PRKD1 (Homo sapiens, UniProt Q15139); assay: KINOMEscan binding; conditions: read-out: Percent Control
T12 construct: purchased Eurofins DiscoverX KINOMEscan

[13] = target: T13, SGK3 (Homo sapiens, UniProt Q96BR1); assay: KINOMEscan binding; conditions: read-out: Percent Control
T13 construct: purchased Eurofins DiscoverX KINOMEscan

[14] = target: T14, PIK3CA(I800L) (Homo sapiens, UniProt P42336, I800L); assay: KINOMEscan binding; conditions: read-out: Percent Control
T14 construct: purchased Eurofins DiscoverX KINOMEscan

[15] = target: T15, SRC (Homo sapiens, UniProt P12931); assay: KINOMEscan binding; conditions: read-out: Percent Control
T15 construct: purchased Eurofins DiscoverX KINOMEscan

[16] = target: T16, RSK4(Kin.Dom.2-C-terminal) (Homo sapiens, UniProt Q9UK32); assay: KINOMEscan binding; conditions: read-out: Percent Control
T16 construct: RSK4(Kin.Dom.2-C-terminal); purchased Eurofins DiscoverX KINOMEscan

[17] = target: T17, PAK2 (Homo sapiens, UniProt Q13177); assay: KINOMEscan binding; conditions: read-out: Percent Control
T17 construct: purchased Eurofins DiscoverX KINOMEscan

[18] = oral, rat model; cited from earlier work
[19] = target: ROCK2 (Homo sapiens, UniProt O75116); assay: KINOMEscan binding; parameters: purchased Eurofins DiscoverX (KINOMEscan service); conditions: read-out: Percent Control
Chain of ROCK2 (O75116 whole entry): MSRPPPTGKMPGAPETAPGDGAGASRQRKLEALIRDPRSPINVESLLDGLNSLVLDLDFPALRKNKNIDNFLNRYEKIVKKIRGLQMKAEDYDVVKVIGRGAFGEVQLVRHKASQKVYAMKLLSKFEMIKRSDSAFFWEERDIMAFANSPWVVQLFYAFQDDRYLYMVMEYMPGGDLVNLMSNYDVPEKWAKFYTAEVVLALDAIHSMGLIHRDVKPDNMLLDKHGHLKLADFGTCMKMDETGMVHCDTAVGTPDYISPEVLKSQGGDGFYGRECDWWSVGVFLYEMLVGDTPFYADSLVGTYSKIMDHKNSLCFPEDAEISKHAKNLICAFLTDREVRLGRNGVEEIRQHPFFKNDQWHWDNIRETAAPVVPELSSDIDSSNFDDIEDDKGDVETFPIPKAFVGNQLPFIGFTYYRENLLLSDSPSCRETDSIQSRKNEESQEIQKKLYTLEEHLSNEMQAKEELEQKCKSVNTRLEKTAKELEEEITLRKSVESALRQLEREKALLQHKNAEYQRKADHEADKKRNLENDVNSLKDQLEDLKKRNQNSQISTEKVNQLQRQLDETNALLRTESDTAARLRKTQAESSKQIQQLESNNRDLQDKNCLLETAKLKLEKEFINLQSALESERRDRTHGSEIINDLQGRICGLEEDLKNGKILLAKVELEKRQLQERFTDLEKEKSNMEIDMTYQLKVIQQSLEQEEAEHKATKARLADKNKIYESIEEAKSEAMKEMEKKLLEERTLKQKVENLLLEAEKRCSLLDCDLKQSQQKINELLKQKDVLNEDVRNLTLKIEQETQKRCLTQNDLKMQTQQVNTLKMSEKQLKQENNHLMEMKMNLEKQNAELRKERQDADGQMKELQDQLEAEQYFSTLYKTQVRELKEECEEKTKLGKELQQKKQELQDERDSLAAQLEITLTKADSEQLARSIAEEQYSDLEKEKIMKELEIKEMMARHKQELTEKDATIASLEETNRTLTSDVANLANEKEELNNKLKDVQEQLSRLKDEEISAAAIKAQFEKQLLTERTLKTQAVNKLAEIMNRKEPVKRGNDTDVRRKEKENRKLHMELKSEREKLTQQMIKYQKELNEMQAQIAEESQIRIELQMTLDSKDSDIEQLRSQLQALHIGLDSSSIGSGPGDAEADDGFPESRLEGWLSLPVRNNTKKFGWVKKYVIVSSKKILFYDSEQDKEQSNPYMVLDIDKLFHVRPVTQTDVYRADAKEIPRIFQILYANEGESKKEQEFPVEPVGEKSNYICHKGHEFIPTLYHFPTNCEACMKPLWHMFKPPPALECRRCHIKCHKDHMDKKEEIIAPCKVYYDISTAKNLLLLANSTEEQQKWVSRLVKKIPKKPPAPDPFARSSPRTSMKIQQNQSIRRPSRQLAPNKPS

[20] = target: T18, TSSK3 (Homo sapiens, UniProt Q96PN8); assay: KINOMEscan binding; conditions: read-out: Percent Control
T18 construct: purchased Eurofins DiscoverX KINOMEscan

[21] = target: T19, MUSK (Homo sapiens, UniProt O15146); assay: KINOMEscan binding; conditions: read-out: Percent Control
T19 construct: purchased Eurofins DiscoverX KINOMEscan

[22] = target: T20, ASK1 (Homo sapiens, UniProt Q99683); assay: KINOMEscan binding; conditions: read-out: Percent Control
T20 construct: purchased Eurofins DiscoverX KINOMEscan

[23] = target: T21, MLK2 (Homo sapiens, UniProt Q02779); assay: KINOMEscan binding; conditions: read-out: Percent Control
T21 construct: purchased Eurofins DiscoverX KINOMEscan
T21 sequence (Q02779 whole entry): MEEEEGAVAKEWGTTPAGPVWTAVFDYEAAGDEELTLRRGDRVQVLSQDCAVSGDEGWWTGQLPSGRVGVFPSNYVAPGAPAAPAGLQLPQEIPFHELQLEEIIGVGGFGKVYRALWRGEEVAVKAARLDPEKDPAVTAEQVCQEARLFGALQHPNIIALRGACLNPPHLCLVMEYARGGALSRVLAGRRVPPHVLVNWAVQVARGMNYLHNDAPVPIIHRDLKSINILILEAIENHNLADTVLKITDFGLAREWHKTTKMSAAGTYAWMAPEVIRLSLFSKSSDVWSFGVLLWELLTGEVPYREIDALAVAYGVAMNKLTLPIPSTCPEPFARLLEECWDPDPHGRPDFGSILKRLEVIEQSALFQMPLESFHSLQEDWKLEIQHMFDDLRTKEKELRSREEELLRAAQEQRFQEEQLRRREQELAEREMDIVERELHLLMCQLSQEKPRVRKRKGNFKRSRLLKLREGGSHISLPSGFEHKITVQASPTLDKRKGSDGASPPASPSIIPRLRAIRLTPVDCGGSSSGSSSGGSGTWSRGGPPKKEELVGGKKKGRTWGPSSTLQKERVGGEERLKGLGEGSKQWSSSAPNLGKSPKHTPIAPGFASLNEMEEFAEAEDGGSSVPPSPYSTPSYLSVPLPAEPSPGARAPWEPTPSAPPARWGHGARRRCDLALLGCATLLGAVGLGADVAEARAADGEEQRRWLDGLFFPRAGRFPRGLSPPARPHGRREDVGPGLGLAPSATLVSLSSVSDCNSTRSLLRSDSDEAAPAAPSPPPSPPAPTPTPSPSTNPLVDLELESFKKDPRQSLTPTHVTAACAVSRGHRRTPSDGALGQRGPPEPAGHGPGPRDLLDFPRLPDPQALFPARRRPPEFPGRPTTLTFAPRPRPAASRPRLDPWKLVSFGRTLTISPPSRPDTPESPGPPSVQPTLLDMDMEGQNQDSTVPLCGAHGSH

[24] = target: T22, FGFR3 (Homo sapiens, UniProt P22607); assay: KINOMEscan binding; conditions: read-out: Percent Control
T22 construct: purchased Eurofins DiscoverX KINOMEscan

[25] = target: T23, AKT1 (Homo sapiens, UniProt P31749); assay: KINOMEscan binding; conditions: read-out: Percent Control
T23 construct: purchased Eurofins DiscoverX KINOMEscan

[26] = target: T24, CHEK2 (Homo sapiens, UniProt O96017); assay: KINOMEscan binding; conditions: read-out: Percent Control
T24 construct: purchased Eurofins DiscoverX KINOMEscan

[27] = target: T25, TNK2 (Homo sapiens, UniProt Q07912); assay: KINOMEscan binding; conditions: read-out: Percent Control
T25 construct: purchased Eurofins DiscoverX KINOMEscan

[28] = target: T26, DYRK2 (Homo sapiens, UniProt Q92630); assay: KINOMEscan binding; conditions: read-out: Percent Control
T26 construct: purchased Eurofins DiscoverX KINOMEscan

[29] = target: T27, ABL1(Q252H)-nonphosphorylated (Homo sapiens, UniProt P00519, Q252H); assay: KINOMEscan binding; conditions: read-out: Percent Control
T27 construct: purchased Eurofins DiscoverX KINOMEscan

[30] = target: T28, LYN (Homo sapiens, UniProt P07948); assay: KINOMEscan binding; conditions: read-out: Percent Control
T28 construct: purchased Eurofins DiscoverX KINOMEscan

[31] = target: T29, IKK-beta (Homo sapiens, UniProt O14920); assay: KINOMEscan binding; conditions: read-out: Percent Control
T29 construct: purchased Eurofins DiscoverX KINOMEscan

[32] = target: T30, RSK1(Kin.Dom.2-C-terminal) (Homo sapiens, UniProt Q15418); assay: KINOMEscan binding; conditions: read-out: Percent Control
T30 construct: RSK1(Kin.Dom.2-C-terminal); purchased Eurofins DiscoverX KINOMEscan
T30 sequence (Q15418 392-735 limits assumed): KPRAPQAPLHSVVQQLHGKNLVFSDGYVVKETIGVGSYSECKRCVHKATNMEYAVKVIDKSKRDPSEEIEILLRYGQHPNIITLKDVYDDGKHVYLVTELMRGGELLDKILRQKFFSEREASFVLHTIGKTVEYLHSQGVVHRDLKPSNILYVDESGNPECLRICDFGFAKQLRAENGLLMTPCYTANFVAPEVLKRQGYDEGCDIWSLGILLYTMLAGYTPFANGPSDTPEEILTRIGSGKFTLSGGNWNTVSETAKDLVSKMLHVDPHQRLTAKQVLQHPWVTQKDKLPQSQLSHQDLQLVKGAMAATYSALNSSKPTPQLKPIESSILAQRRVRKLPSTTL

[33] = target: T31, MAP4K3 (Homo sapiens, UniProt Q8IVH8); assay: KINOMEscan binding; conditions: read-out: Percent Control
T31 construct: purchased Eurofins DiscoverX KINOMEscan

[34] = target: T32, ERK3 (Homo sapiens, UniProt Q16659); assay: KINOMEscan binding; conditions: read-out: Percent Control
T32 construct: purchased Eurofins DiscoverX KINOMEscan
T32 sequence (Q16659 whole entry): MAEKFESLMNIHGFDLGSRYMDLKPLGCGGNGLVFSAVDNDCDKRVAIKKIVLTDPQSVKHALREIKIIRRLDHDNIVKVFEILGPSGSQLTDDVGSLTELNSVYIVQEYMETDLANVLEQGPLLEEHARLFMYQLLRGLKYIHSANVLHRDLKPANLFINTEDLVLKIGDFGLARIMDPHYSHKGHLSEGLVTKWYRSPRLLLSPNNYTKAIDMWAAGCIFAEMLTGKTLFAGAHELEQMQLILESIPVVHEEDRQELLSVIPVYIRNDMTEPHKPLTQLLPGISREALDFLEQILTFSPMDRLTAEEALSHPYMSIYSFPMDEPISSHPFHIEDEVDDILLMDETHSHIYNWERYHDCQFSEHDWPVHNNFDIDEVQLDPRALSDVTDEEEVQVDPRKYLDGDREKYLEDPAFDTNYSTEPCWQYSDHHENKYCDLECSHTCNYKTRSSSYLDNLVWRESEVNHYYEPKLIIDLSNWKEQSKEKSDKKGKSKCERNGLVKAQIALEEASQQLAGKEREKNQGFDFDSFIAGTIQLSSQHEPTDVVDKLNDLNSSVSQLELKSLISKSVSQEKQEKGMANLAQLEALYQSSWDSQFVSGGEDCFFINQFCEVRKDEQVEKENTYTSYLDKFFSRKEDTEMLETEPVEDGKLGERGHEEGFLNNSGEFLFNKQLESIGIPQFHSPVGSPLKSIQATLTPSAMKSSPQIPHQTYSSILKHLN

[35] = target: T33, CTK (Homo sapiens, UniProt P42679); assay: KINOMEscan binding; conditions: read-out: Percent Control
T33 construct: purchased Eurofins DiscoverX KINOMEscan

[36] = target: T34, PCTK3 (Homo sapiens, UniProt Q07002); assay: KINOMEscan binding; conditions: read-out: Percent Control
T34 construct: purchased Eurofins DiscoverX KINOMEscan
T34 sequence (Q07002 whole entry): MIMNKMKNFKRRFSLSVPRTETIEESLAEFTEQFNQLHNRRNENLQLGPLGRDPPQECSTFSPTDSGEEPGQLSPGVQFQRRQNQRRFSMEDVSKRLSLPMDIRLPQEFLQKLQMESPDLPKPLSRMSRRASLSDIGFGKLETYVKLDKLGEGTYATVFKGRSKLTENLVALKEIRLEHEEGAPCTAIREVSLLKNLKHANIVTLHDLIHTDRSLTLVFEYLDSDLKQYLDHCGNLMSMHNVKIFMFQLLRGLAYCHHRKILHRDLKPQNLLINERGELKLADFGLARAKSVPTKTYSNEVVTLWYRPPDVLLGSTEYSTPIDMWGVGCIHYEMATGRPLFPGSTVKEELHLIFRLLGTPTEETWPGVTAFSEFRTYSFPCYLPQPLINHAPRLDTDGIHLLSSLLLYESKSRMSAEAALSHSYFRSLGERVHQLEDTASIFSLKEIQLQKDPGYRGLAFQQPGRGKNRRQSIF

[37] = target: T35, TLK2 (Homo sapiens, UniProt Q86UE8); assay: KINOMEscan binding; conditions: read-out: Percent Control
T35 construct: purchased Eurofins DiscoverX KINOMEscan

[38] = target: T36, HCK (Homo sapiens, UniProt P08631); assay: KINOMEscan binding; conditions: read-out: Percent Control
T36 construct: purchased Eurofins DiscoverX KINOMEscan

[39] = target: T37, FGFR4 (Homo sapiens, UniProt P22455); assay: KINOMEscan binding; conditions: read-out: Percent Control
T37 construct: purchased Eurofins DiscoverX KINOMEscan

[40] = target: T38, SRMS (Homo sapiens, UniProt Q9H3Y6); assay: KINOMEscan binding; conditions: read-out: Percent Control
T38 construct: purchased Eurofins DiscoverX KINOMEscan

[41] = target: T39, JAK2(JH1domain-catalytic) (Homo sapiens, UniProt O60674); assay: KINOMEscan binding; conditions: read-out: Percent Control
T39 construct: JAK2(JH1domain-catalytic); purchased Eurofins DiscoverX KINOMEscan
T39 sequence (O60674 840-1132 limits assumed): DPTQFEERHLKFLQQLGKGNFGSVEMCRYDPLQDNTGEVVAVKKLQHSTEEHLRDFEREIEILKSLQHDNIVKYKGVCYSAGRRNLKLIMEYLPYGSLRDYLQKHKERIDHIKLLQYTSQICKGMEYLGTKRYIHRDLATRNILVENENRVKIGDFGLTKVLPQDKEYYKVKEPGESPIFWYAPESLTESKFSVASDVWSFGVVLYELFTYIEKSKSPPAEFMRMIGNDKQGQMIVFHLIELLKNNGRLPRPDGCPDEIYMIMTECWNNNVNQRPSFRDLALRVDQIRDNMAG

[42] = target: T40, CLK1 (Homo sapiens, UniProt P49759); assay: KINOMEscan binding; conditions: read-out: Percent Control
T40 construct: purchased Eurofins DiscoverX KINOMEscan

Molecule `CC(C)NC(=O)COc1cccc(-c2nc(Nc3ccc4[nH]ncc4c3)c3ccccc3n2)c1` [KD025, 2-(3-(4-((1H-indazol-5-yl)amino)quinazolin-2-yl)phenoxy)-N-isopropylacetamide] has a remaining binding at 10 µM [1] of 28%, a remaining binding at 10 µM [2] of 68% and a remaining binding at 10 µM [3] of 56%. The remaining binding at 10 µM [4] was 95%, the remaining binding at 10 µM [5] was 57% and the remaining binding at 10 µM [6] was 100%. For the same molecule, the remaining binding at 10 µM [7] was 31%, the remaining binding at 10 µM [8] was 92% and the remaining binding at 10 µM [9] was 84%. For the same molecule, the remaining binding at 10 µM [10] was 100%, the remaining binding at 10 µM [11] was 91% and the remaining binding at 10 µM [12] was 72%. For the same molecule, the remaining binding at 10 µM [13] was 79%, the remaining binding at 10 µM [14] was 100% and the remaining binding at 10 µM [15] was 87%. The remaining binding at 10 µM [16] was 88%, the remaining binding at 10 µM [17] was 79% and the absolute bioavailability [18] was 37%. For the same molecule, the remaining binding at 10 µM [19] was 0.05%, the remaining binding at 10 µM [20] was 77% and the remaining binding at 10 µM [21] was 59%. It also gave a remaining binding at 10 µM [22] of 100%, a remaining binding at 10 µM [23] of 100% and a remaining binding at 10 µM [24] of 72%. For the same molecule, the remaining binding at 10 µM [25] was 88%, the remaining binding at 10 µM [26] was 99% and the remaining binding at 10 µM [27] was 82%. For the same molecule, the remaining binding at 10 µM [28] was 86%, the remaining binding at 10 µM [29] was 85% and the remaining binding at 10 µM [30] was 100%. The remaining binding at 10 µM [31] was 100%, the remaining binding at 10 µM [32] was 100% and the remaining binding at 10 µM [33] was 78%. The remaining binding at 10 µM [34] was 64%, the remaining binding at 10 µM [35] was 83% and the remaining binding at 10 µM [36] was 81%. For the same molecule, the remaining binding at 10 µM [37] was 100%, the remaining binding at 10 µM [38] was 95% and the remaining binding at 10 µM [39] was 91%. It also gave a remaining binding at 10 µM [40] of 70%, a remaining binding at 10 µM [41] of 51% and a remaining binding at 10 µM [42] of 57%.
